{
  "source": "patent US20060168675A1",
  "about": "“Novel polypetide having function of 7-keto-8-aminopelargonic acid synthase of plant and method for inducing growth inhibition and lethality by suppressing expression of the polypeptide” (GENOMINE, INC, priority 2002, published 2006)",
  "key": {"[1]": {"system": "transgenic Arabidopsis thaliana comprising antisense construct of AtKAPAS gene", "settings": "pots filled with sands containing 1 mM biotin; Basta treated 5 times; transformed seeds", "procedure": "The pots were treated with Basta 5 times, and then investigated for the growth of Arabidopsis thaliana in every pot."}, "[2]": {"target": "KAPA syntase of Bacillus sphaericus (Lysinibacillus sphaericus, UniProt P22806)", "sequence (P22806 whole entry)": "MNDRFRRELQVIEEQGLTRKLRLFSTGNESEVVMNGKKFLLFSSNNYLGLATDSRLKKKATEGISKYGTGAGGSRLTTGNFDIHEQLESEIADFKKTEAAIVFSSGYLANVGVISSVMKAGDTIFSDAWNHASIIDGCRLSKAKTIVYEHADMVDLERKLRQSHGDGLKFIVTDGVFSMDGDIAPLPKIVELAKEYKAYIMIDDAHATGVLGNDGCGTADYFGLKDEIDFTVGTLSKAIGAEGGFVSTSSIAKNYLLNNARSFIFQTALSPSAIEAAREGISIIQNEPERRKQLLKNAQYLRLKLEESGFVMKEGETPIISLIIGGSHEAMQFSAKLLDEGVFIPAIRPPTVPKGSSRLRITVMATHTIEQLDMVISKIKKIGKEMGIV", "settings": "read-out: Km value to pimeroyl CoA; KAPA synthase of Bacillus sphaericus; cited from earlier work"}, "[3]": {"target": "T1, protein expressed by AtKAPAS gene (KAPA synthase) (Arabidopsis thaliana, UniProt Q8GW43, DEL236-242/L243I)", "T1 construct": "contains 1410 bp size open reading frame encoding 469 amino acids; made in house; host or cells: E. coli BL21-Gold(DE) transformed with pCKAPA (AtKAPAS cDNA in pCAL-n)", "T1 sequence (Q8GW43 other isoform, or with tags, fused parts or gaps DEL236-242/L243I)": "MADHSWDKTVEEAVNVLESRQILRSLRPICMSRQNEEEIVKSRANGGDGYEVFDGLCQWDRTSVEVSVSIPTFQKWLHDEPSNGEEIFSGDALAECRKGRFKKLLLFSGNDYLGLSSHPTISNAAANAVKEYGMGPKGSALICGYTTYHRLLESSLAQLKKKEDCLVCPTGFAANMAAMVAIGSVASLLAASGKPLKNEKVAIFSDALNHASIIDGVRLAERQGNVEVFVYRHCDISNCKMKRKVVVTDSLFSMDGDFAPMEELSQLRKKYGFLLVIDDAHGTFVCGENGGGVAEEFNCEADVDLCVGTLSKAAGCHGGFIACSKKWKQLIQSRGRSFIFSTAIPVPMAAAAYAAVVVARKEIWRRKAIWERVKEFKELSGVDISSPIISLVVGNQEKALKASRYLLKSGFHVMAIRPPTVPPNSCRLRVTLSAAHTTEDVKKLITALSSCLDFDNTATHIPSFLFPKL", "format": "biochemical", "settings": "substrate pimeroyl CoA, Lineweaver-Burk plot, 30° C., pH 7.5, 340 nm", "procedure": "The enzyme activity of the protein was measured at 340 nm using a spectrophotometer (Backman DU series 60 spectrophotometer) adjusted at 30° C. according to a method of Alexeev et al.(Alexeev et al. J. Mol. Biol., 284:401-419, 1998). […] In every reaction solution, the concentration of the protein was 10 μM. L-alanine and pimeroyl CoA were also added into each reaction solution ([…]). Results were analyzed using the Soft-Pac Module kinetics software. Before the analysis, enzyme samples were dialyzed with 20 mM potassium phosphate buffer (pH 7.5) containing 100 μM PLP (pyridoxal 5′-phosphate) at 4° C. for 2 hours. The cuvette containing other substances but the purified protein was used as a control group for the measurement of the enzyme activity.\nThe changes of reaction speed according to substrate concentration were measured, and then represented by Lineweaver-Burkes plot (see FIG. 4)."}, "KAPA syntase of E. coli": {"target": "KAPA syntase of E. coli (Escherichia coli, UniProt P12998)", "sequence (P12998 whole entry)": "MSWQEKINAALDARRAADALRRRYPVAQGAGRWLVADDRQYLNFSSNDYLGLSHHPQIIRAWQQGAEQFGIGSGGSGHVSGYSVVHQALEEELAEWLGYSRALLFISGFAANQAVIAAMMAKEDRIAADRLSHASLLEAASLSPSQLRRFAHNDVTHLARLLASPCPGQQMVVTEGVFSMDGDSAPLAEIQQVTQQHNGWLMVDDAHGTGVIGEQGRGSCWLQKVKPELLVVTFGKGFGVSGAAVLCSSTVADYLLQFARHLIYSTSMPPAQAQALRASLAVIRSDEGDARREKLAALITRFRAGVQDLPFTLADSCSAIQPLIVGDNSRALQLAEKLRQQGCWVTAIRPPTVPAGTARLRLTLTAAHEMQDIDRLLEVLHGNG", "settings": "KAPA synthase of E. coli; read-out: Km value to pimeroyl CoA; cited from earlier work"}},
  "data": [
    {"smiles": "O=C(O)CCCC[C@@H]1SC[C@@H]2NC(=O)N[C@@H]21", "note": "[biotin]", "values": [
      {"measurement": "Individual plants grown up", "setting": "[1]", "value": 16}
    ]},
    {"smiles": "CC(C)(COP(=O)(O)OP(=O)(O)OC[C@H]1O[C@@H](n2cnc3c(N)ncnc32)[C@H](O)[C@@H]1OP(=O)(O)O)[C@@H](O)C(=O)NCCC(=O)NCCSC(=O)CCCCCC(=O)O", "note": "[pimeroyl CoA, pimeloyl CoA]", "values": [
      {"measurement": "Km", "setting": "[2]", "value": 2500, "unit": "µM"},
      {"measurement": "Km", "setting": "[3]; read-out: Km value", "value": 0.54, "unit": "µM"},
      {"measurement": "Vmax value", "setting": "[3]", "value": 7.93},
      {"measurement": "Km", "setting": "KAPA syntase of E. coli", "value": 500, "unit": "µM"}
    ]}
  ]
}
